The test concerns the target T1, hyperactive mutant BKCa channels (hSlo G803D/N806K) stably expressed in AD 293 cells (Homo sapiens, UniProt Q12791, G856D/N859K).
T1 construct: expressed in transfected cells
The experiment in a line: Cell-based fluorescence assay (FluxOR Potassium Ion Channel Assay) of BKCa channel activation. Details: key to Channel activity increase for 80 s (ΔRFU) at 6 μM: ratio of ΔRFU (RFU at 100 s − 20 s) to the same ΔRFU for vehicle. The method, boiled down:
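AD 293 cells stably expressing hSlo G803D/N806K were exposed to compound in assay buffer for 15 min, then read by FluxOR thallium-flux fluorescence (ex 485/em 528 nm) every 2 s for 120 s. Initial rate vi from 20–24 s; ΔRFU from 20–100 s, normalised to vehicle and measured at 6 μM; apparent EC50 from dose-response fit.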

T1 sequence (Q12791 whole entry G856D/N859K): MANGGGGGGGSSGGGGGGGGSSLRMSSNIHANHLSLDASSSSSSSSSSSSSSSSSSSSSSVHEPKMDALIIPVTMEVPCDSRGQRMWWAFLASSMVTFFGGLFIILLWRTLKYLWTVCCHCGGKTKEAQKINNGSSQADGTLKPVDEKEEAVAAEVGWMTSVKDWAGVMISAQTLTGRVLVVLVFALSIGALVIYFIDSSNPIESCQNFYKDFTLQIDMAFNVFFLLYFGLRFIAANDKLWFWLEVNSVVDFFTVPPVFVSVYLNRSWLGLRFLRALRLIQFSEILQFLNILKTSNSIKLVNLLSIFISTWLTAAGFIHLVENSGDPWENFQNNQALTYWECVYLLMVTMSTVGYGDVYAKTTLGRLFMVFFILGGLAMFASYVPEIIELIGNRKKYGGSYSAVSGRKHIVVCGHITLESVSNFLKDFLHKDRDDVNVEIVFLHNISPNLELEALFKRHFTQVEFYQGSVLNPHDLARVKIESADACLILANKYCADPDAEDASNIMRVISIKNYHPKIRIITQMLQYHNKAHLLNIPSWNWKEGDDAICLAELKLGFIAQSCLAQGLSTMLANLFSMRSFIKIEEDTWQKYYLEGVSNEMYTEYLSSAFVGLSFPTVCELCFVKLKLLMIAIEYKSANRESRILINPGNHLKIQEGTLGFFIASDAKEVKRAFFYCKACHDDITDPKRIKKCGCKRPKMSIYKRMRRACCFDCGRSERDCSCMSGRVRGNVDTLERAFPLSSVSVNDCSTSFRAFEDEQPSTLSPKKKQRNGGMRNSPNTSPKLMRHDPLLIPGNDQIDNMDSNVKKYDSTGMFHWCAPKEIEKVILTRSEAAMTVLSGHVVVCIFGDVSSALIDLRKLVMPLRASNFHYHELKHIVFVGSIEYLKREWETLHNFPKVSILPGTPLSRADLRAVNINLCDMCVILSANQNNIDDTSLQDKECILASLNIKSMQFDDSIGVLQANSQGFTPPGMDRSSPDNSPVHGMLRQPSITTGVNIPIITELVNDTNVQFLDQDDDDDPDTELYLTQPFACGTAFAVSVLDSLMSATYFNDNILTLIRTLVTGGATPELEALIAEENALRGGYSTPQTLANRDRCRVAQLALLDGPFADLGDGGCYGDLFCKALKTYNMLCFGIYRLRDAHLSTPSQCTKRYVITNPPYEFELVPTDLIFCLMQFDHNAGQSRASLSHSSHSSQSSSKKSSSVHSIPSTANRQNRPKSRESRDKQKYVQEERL

Regarding `Cc1cccc(NC(=O)c2sc(=S)n3c2[nH]c(=O)c2cc(Br)ccc23)c1` [TTQC-1, 7-bromo-5-oxo-1-thioxo-N-(m-tolyl)-4,5-dihydro-1H-thiazolo[3,4-a]quinazoline-3-carboxamide], the “increase in fluorescence induced by TTQC-1 in the presence of BKCa channel inhibitors” value (2 μM TTQC-1, 1 μM paxillin and 0.1 μM iberiotoxin) is “removed”. Besides, under “3 μM”, the “activation effect on the BKCa channel relative to LDD175” value amounted to 1.6 times and the “activation effect on the BKCa channels at a single concentration” value is “most potent effect”. The “effect (ΔRFU) relative to vehicle” value (6 μM) is recorded as 4.98±0.05 times. For the setting “6 μM, first 4 s after channel stimulation”, the “Initial velocity of channel activation for 4 s (vi) at 6 μM” value came to 9.77 s⁻¹. Further, under “6 μM, normalized by vehicle”, the “Channel activity increase for 80 s (ΔRFU) at 6 μM” value came out at 4.98. Where the note is “0.6-10 μM tested”, the “concentration at which the Tl+ flux effect was saturated” value amounted to 6 µM. Moreover, the “TTQC-1 activation effect in the presence of 0.1 μM iberiotoxin” value (TTQC-1 at concentrations above 4 μM) was “activated the BKCa channels”. The “TTQC-1 activation effect in the presence of 0.1 μM iberiotoxin” value (TTQC-1 at concentrations below 2 μM) is given as “eliminated”. Besides, under “fit of dose-response curve of initial rates, read-out: Apparent EC50 based on vi”, the EC50 worked out at 5.74 µM.

These data come from patent publication US20240398813A1, “PHARMACEUTICAL COMPOSITION FOR PREVENTING OR TREATING OVERACTIVE BLADDER” (GWANGJU INSTITUTE OF SCIENCE AND TECHNOLOGY, priority 2021, published 2024).
